From paper PMC12677699, “Utilizing Proteolytic‐Resistant Nano‐Short Peptide Based on Naphthyl Tail‐Anchored to Combat Bacterial Infections” (Advanced Science, 2025)
Values after ≈ are worked out from the molar mass of the structure shown. Non-standard residues stand in square brackets, D forms with d. Residues, ends and D or L forms follow the SMILES beside them. ξ: configuration not given here. ξAhp(2) = CCCCCC(N)C(=O)O

Key:
E. coli ATCC 25922 [1] = experiment: Serum tolerance assay (MIC after incubation with serum); assay type: cell-based, Escherichia coli; settings: 4 h of incubation with various serum concentrations
Protocol: The serum stability of nano‐short peptides was evaluated by incubating peptide solutions with fetal bovine serum (FBS), which was at concentrations of 25%, 50%, and 100% (diluted in 0.2% BSA solution). Following 4 h of incubation, the antimicrobial activity was determined by measuring the MIC against the test strains.

[2] = LTA binding, BODIPY-TR-cadaverine displacement; settings: BC displacement, n = 3
Protocol: (§1) The binding ability of nano‐short peptides to LPS and LTA was evaluated using a BODIPY‐TR‐cadaverine (BC) displacement assay.^[ [59] ^] Test solutions containing LPS or LTA (50 µg mL^−1) were pre‐incubated with BC dye (5 µg mL^−1) for 4 h in the dark. Peptide solutions at varying concentrations were then mixed with the LPS or LTA, polymyxin B (final concentration 10 µg mL^−1) was used as a positive control, and LPS or LTA mixed with dye solution was used as a negative control. The fluorescence intensity (excitation λ = 580 nm, emission λ = 620 nm) was measured. %ΔF (au) = [(F treated – F negative control)/(F positive control – F negative control)] × 100%.

S. aureus ATCC 29213 [3] = experiment: Cell wall permeability, NPN; assay type: cell-based, Staphylococcus aureus; settings: n = 3
Protocol: The NPN fluorescent probe was used to assess the permeability of cell wall.^[ [64] ^] A logarithmic phase culture of S. aureus ATCC 29213 bacterial solution was diluted to OD600 = 0.2 in a 5 × 10^−3 M HEPES buffer (pH = 7.4 with 5 × 10^−3 M glucose). Following the addition of NPN (final concentration: 10 × 10^−6 M), the mixture was incubated for 30 min in the dark. Subsequently, the bacterial suspension was mixed with an equal volume of nano‐short peptides solution at different concentrations. […] Fluorescence intensity was measured (excitation λ = 350 nm, emission λ = 420 nm) using a microplate reader. The percentage of outer membrane permeability was calculated as: Permeability% = [(F treated – F negative control)/(F positive control – F negative control)] × 100%.

E. coli 078 = assay type: cell-based, Escherichia coli
Protocol: (§2) The MIC values of the nano‐short peptides were determined according to standard protocols.^[ [63] ^] Bacterial strains were revived from cryopreservation and cultured in Mueller–Hinton broth (MHB) to logarithmic growth phase, then diluted to a final density of 0.5–1 × 10⁶ CFU mL^−1. Serial dilutions of the nano‐short peptides were prepared in 0.2% bovine serum albumin (BSA) using a 96‐well plate format. Equal volumes of peptide solutions and bacterial suspensions were combined and incubated at 37 °C for 20–22 h. Bacterial growth was assessed by measuring absorbance at 492 nm, with MHB alone (negative control) and untreated bacterial suspension (positive control) included for reference.

E. coli UB1005 = assay type: cell-based, Escherichia coli
Protocol: as §2

E. coli 25922 = assay type: cell-based, Escherichia coli
Protocol: as §2

E. coli ATCC 25922 [4] = experiment: Outer membrane permeability, NPN; assay type: cell-based, Escherichia coli; settings: n = 3
Protocol: The NPN fluorescent probe was used to assess the permeability of the outer membrane.^[ [29] ^] A logarithmic phase culture of E. coli ATCC 25922 bacterial solution was diluted to OD600 = 0.2 in a 5 × 10^−3 M HEPES buffer (pH = 7.4 with 5 × 10^−3 M glucose). Following the addition of NPN (final concentration: 10 × 10^−6 M), the mixture was incubated for 30 min in the dark. Subsequently, the bacterial suspension was mixed with an equal volume of nano‐short peptides solution at different concentrations. Polymyxin B (10 µg mL^−1) was used as a positive control, while an untreated bacterial dilution served as the negative control. Fluorescence intensity was measured (excitation λ = 350 nm, emission λ = 420 nm) using a microplate reader. The percentage of outer membrane permeability was calculated as: Permeability% = [(F treated – F negative control)/(F positive control – F negative control)] × 100%.

S. aureus 25923 = assay type: cell-based, Staphylococcus aureus
Protocol: as §2

S. aureus 29213 = assay type: cell-based, Staphylococcus aureus
Protocol: as §2

[5] = LPS binding, BODIPY-TR-cadaverine displacement; settings: BC displacement, polymyxin B 10 µg mL^−1 = 100%, n = 3
Protocol: as §1

S. typhimurium 14028 = assay type: cell-based, Salmonella typhimurium
Protocol: as §2

S. typhimurium 7731 = assay type: cell-based, Salmonella typhimurium
Protocol: as §2

S. epidermidis 12228 = assay type: cell-based, Staphylococcus epidermidis
Protocol: as §2

S. aureus ATCC 29213 [6] = experiment: ROS generation, DCFH-DA; assay type: cell-based, Staphylococcus aureus; settings: 16 × 10^−6 M, S. aureus ATCC 29213, DCFH-DA, 1 h; n = 3
Protocol: ROS accumulation levels were assessed by the fluorescent probe DCFH‐DA.^[ [63] ^] Logarithmic growth stage E. coli ATCC 25922 and S. aureus ATCC 29213 bacterial solutions were diluted to OD600 = 0.4 in PBS (pH = 7.4, 10 × 10^−3 M), followed by incubation with DCFH‐DA final concentration of 10 × 10^−6 M) for 30 min at 37 °C. Subsequently, the bacterial suspensions were then mixed with different concentrations of nano‐short peptides dilutions in equal volumes in a 96‐well plate and continued to incubate for 1 h (37 °C). Finally, the fluorescence intensity was measured using a microplate reader (excitation λ = 488 nm, emission λ = 525 nm).

Row | SMILES | antimicrobial capacity after serum incubation (E. coli ATCC 25922 [1]) | LTA binding capacity, % of the antibiotic control ([2]; 8 × 10^−6 M) [%] | LTA binding capacity, % of the antibiotic control ([2]; 16 × 10^−6 M) [%] | cell wall permeabilization, ciprofloxacin as the reference (S. aureus ATCC 29213 [3]; 8 × 10^−6 M) [%] | cell wall permeabilization, ciprofloxacin as the reference (S. aureus ATCC 29213 [3]; 16 × 10^−6 M) [%] | MIC, E. coli 078 (E. coli 078) [µM] | MIC, E. coli UB1005 (E. coli UB1005) [µM] | MIC, E. coli 25922 (E. coli 25922) [µM] | outer membrane disruption compared to polymyxin B (E. coli ATCC 25922 [4]; 8 × 10^−6 M) [%] | outer membrane disruption compared to polymyxin B (E. coli ATCC 25922 [4]; 16 × 10^−6 M) [%] | MIC, S. aureus 25923 (S. aureus 25923) [µM] | MIC, S. aureus 29213 (S. aureus 29213) [µM] | LPS binding, % of polymyxin B's binding efficiency ([5]; 8 × 10^−6 M) [%] | LPS binding, % of polymyxin B's binding efficiency ([5]; 16 × 10^−6 M) [%] | MIC, S. typhimurium 14028 (S. typhimurium 14028) [µM] | MIC, S. typhimurium 7731 (S. typhimurium 7731) [µM] | MIC, S. epidermidis 12228 (S. epidermidis 12228) [µM] | increase of ROS content vs untreated bacteria (S. aureus ATCC 29213 [6]) [fold]
1 | N=C(N)NCCC[C@H](NC(=O)[C@@H](CCCNC(=N)N)NC(=O)[C@H](Cc1cccc2ccccc12)NC(=O)[C@H](Cc1cccc2ccccc12)NC(=O)[C@H](Cc1cccc2ccccc12)NC(=O)[C@@H](N)Cc1cccc2ccccc12)C(=O)N[C@@H](CCCNC(=N)N)C(=O)N1CCC[C@H]1C(=O)O (stereo in doubt) [Peptide N4] | retained their original antimicrobial capacity | 65.60 | 73.08 | 48.48 | 110.54 | 8 (≈ 11 µg/mL) | 4 (≈ 5.49 µg/mL) | 8 (≈ 11 µg/mL) | 92.06 | 108.41 | 4 (≈ 5.49 µg/mL) | 4 (≈ 5.49 µg/mL) | 60.67 | 99.47 | 8 (≈ 11 µg/mL) | 8 (≈ 11 µg/mL) | 4 (≈ 5.49 µg/mL) | 1.83
2 | CCCCCC(N)C(=O)NC(CCCCC)C(=O)NC(CCCCC)C(=O)NC(CCCCC)C(=O)N[C@H](CCCNC(=N)N)C(=O)N[C@@H](CCCNC(=N)N)C(=O)N[C@@H](CCCNC(=N)N)C(=O)N1CCC[C@H]1C(=O)O (stereo partly drawn) [Peptide B4] (H-[ξAhp(2)][ξAhp(2)][ξAhp(2)][ξAhp(2)][dR]RRP-OH; N-terminus assumed) | retained their original antimicrobial capacity | 85.77 | 96.79 | 19.49 | 37.80 | 16 (≈ 17.5 µg/mL) | 8 (≈ 8.74 µg/mL) | 16 (≈ 17.5 µg/mL) | 37.37 | 57.94 | 32 (≈ 35 µg/mL) | 16 (≈ 17.5 µg/mL) | 40.51 | 54.24 | 128 (≈ 140 µg/mL) | 32 (≈ 35 µg/mL) | 32 (≈ 35 µg/mL) | 1.38
